Here are results for seven molecules from PubChem BioAssay AID2060604 (Molecular Pharmacology Branch, DTP, NCI, 2025).

The subject of this experiment is 379773-124-R-J2-PDC complex spheroids, viability % test/control. The experiment in a line: Anticancer human tumor 379773-124-R-J2-PDC patient-derived endometrial carcinoma cell line growth inhibition [CLK]. Particulars: for viability, T/C: stronger effect = lower value. Put shortly:
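Patient-derived tumor cells grown as complex spheroids with HUVEC endothelial cells and mesenchymal stem cells, treated with drug combinations. Concentrations descend in half-log steps from near clinical Cmax, or from 10 microM if Cmax unknown.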

[1] abbreviates: curve of first compound, second compound 0.0316 µM.
The mark [2] stands for this setting: curve of first compound, second compound 0.1 µM.
The mark [3] stands for this setting: curve of first compound, second compound 0.316 µM.
Where [4] appears, read: curve of first compound, second compound 1 µM.
Where [5] appears, read: curve of first compound, second compound 3.16 µM.
[6] abbreviates: curve of first compound, second compound 10 µM.
The mark [7] stands for this setting: second compound 0.0316 µM, first compound 0.0316 µM.
Where [8] appears, read: second compound 0.0316 µM, first compound 0.1 µM.
Where [9] appears, read: second compound 0.0316 µM, first compound 0.316 µM.
Where [10] appears, read: second compound 0.0316 µM, first compound 1 µM.
Where [11] appears, read: second compound 0.0316 µM, first compound 3.16 µM.
[12] abbreviates: second compound 0.0316 µM, first compound 10 µM.
The mark [13] stands for this setting: second compound 0.1 µM, first compound 0.0316 µM.
The mark [14] stands for this setting: second compound 0.1 µM, first compound 0.1 µM.
[15] abbreviates: second compound 0.1 µM, first compound 0.316 µM.
Setting [16] is: second compound 0.1 µM, first compound 1 µM.
Setting [17] is: second compound 0.1 µM, first compound 3.16 µM.
Where [18] appears, read: second compound 0.1 µM, first compound 10 µM.
The mark [19] stands for this setting: second compound 0.316 µM, first compound 0.0316 µM.
The mark [20] stands for this setting: second compound 0.316 µM, first compound 0.1 µM.
Where [21] appears, read: second compound 0.316 µM, first compound 0.316 µM.
Setting [22] is: second compound 0.316 µM, first compound 1 µM.
Setting [23] is: second compound 0.316 µM, first compound 3.16 µM.
Setting [24] is: second compound 0.316 µM, first compound 10 µM.
The mark [25] stands for this setting: second compound 1 µM, first compound 0.0316 µM.
Setting [26] is: second compound 1 µM, first compound 0.1 µM.
[27] abbreviates: second compound 1 µM, first compound 0.316 µM.
Setting [28] is: second compound 1 µM, first compound 1 µM.
The mark [29] stands for this setting: second compound 1 µM, first compound 3.16 µM.
Where [30] appears, read: second compound 1 µM, first compound 10 µM.
The mark [31] stands for this setting: second compound 3.16 µM, first compound 0.0316 µM.
Setting [32] is: second compound 3.16 µM, first compound 0.1 µM.
The mark [33] stands for this setting: second compound 3.16 µM, first compound 0.316 µM.
Where [34] appears, read: second compound 3.16 µM, first compound 1 µM.
[35] abbreviates: second compound 3.16 µM, first compound 3.16 µM.
[36] abbreviates: second compound 3.16 µM, first compound 10 µM.
Setting [37] is: second compound 10 µM, first compound 0.0316 µM.
Setting [38] is: second compound 10 µM, first compound 0.1 µM.
The mark [39] stands for this setting: second compound 10 µM, first compound 0.316 µM.
Setting [40] is: second compound 10 µM, first compound 1 µM.
Setting [41] is: second compound 10 µM, first compound 3.16 µM.
Where [42] appears, read: second compound 10 µM, first compound 10 µM.

“And” between values parts separate entries of the source, which are not always exact repeats. Identical values can stand only once.
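Also: compound exposure lasted seven days before the viability readout.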
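For viability, T/C in this document: 100% = DMSO vehicle control wells.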

Broadly, the IC50 is the midpoint of a concentration-inhibition curve. What is called viability, T/C is the result in the treated group divided by that in the control group, in per cent. As to `Nc1ccn(C2OC(CO)C(O)C2(F)F)c(=O)n1` (centres undefined) + CN1CCN(c2cc(C(=O)Nc3cc4cc(-c5cnn(C)c5)ccc4cn3)ccn2)CC1, the IC50 under setting [1] was less than 31.6 nM; the IC50 under setting [2] was less than 31.6 nM; the IC50 under setting [3] is less than 31.6 nM; the IC50 under setting [4] was less than 31.6 nM; the IC50 under setting [5] is less than 31.6 nM; the half-maximal inhibitory concentration (IC50) under setting [6] was less than 31.6 nM. The viability, T/C under setting [7] is 10.9%; the viability, T/C under setting [8] was 5.93%; the viability, T/C under setting [9] was 5%; the viability, T/C under setting [10] was 6.45%; the viability, T/C under setting [11] was 6.59%; the viability, T/C under setting [12] was 3.28%. The viability, T/C is 10.4% under setting [13]; 5.09% under setting [14]; 4.66% under setting [15]; 5.3% under setting [16]; 4.72% under setting [17]; 1.97% under setting [18]. Moreover, the viability, T/C by setting is: under setting [19], 7.96%; under setting [20], 4.03%; under setting [21], 2.64%; under setting [22], 2.49%; under setting [23], 1.51%; under setting [24], 0.83%. Besides, the viability, T/C is, setting by setting: under setting [25], 0.1%; under setting [26], 0.12%; under setting [27], 0.11%; under setting [28], 0.05%; under setting [29], 1.02%; under setting [30], 0.05%. In addition, the viability, T/C runs as follows: under setting [31], 0.08%; under setting [32], 0.11%; under setting [33], 0.12%; under setting [34], 0.07%; under setting [35], 0.82%; under setting [36], 0.09%. Moreover, the viability, T/C under setting [37] was 0.18%; the viability, T/C under setting [38] is 1.56%; the viability, T/C under setting [39] is 0.87%; the viability, T/C under setting [40] is 1.76%; the viability, T/C under setting [41] is 0.56%; the viability, T/C under setting [42] is 0.13%.

As for `CCc1c2c(nc3ccc(O)cc13)-c1cc3c(c(=O)n1C2)COC(=O)[C@]3(O)CC`, the viability, T/C runs as follows: (compound 0.00316 µM) 24.2% and 20.4%; (compound 0.01 µM) 8.01% and 6.62%; (compound 0.0316 µM) 5.03% and 4.19%; (compound 0.1 µM) 2.77% and 1.93%; (compound 0.316 µM) 0.94% and 0.86%; (compound 1 µM) 0.57% and 0.46%. The half-maximal inhibitory concentration (IC50) (curve of compound) was less than 3.16 nM.

As for `CCCS(=O)(=O)Nc1ccc(F)c(C(=O)c2c[nH]c3ncc(-c4ccc(Cl)cc4)cc23)c1F`, the viability, T/C is, setting by setting: (compound 0.0316 µM) 83.1% and 93.8%; (compound 0.1 µM) 88.5% and 84.4%; (compound 0.316 µM) 85.2% and 98.8%; (compound 1 µM) 100% and 90.3%; (compound 3.16 µM) 81.5% and 78.6%; (compound 10 µM) 64.6% and 53.6%. In addition, the IC50 (curve of compound) is greater than 10000 nM.

In the case of `O=c1[nH]cc(F)c(=O)[nH]1` + CN1CCN(c2cc(C(=O)Nc3cc4cc(-c5cnn(C)c5)ccc4cn3)ccn2)CC1, the IC50 reads like this: under setting [1], greater than 10000 nM; under setting [2], greater than 10000 nM; under setting [3], less than 31.6 nM; under setting [4], less than 31.6 nM; under setting [5], less than 31.6 nM; under setting [6], less than 31.6 nM. Also, the viability, T/C under setting [7] was 92.2%; the viability, T/C under setting [8] is 86.8%; the viability, T/C under setting [9] is 93.4%; the viability, T/C under setting [10] was 82.3%; the viability, T/C under setting [11] was 74.5%; the viability, T/C under setting [12] is 56.2%. In addition, the viability, T/C is 82% under setting [13]; 82.2% under setting [14]; 78.4% under setting [15]; 67.4% under setting [16]; 70.6% under setting [17]; 54.1% under setting [18]. Also, the viability, T/C under setting [19] was 24.9%; the viability, T/C under setting [20] was 23.4%; the viability, T/C under setting [21] was 28.6%; the viability, T/C under setting [22] is 22.5%; the viability, T/C under setting [23] is 19.1%; the viability, T/C under setting [24] is 14.8%. The viability, T/C under setting [25] is 0.12%; the viability, T/C under setting [26] is 0.11%; the viability, T/C under setting [27] was 0.1%; the viability, T/C under setting [28] is 0.08%; the viability, T/C under setting [29] was 1.26%; the viability, T/C under setting [30] is 0.11%. Besides, the viability, T/C was 0.39% under setting [31]; 1.04% under setting [32]; 0.08% under setting [33]; 1.36% under setting [34]; 0.05% under setting [35]; 0.94% under setting [36]. Moreover, the viability, T/C is, setting by setting: under setting [37], 1.85%; under setting [38], 1.37%; under setting [39], 0.12%; under setting [40], 0.11%; under setting [41], 0.1%; under setting [42], 0.68%.

With `CCc1c2c(nc3ccc(O)cc13)-c1cc3c(c(=O)n1C2)COC(=O)[C@]3(O)CC` + CN1CCN(c2cc(C(=O)Nc3cc4cc(-c5cnn(C)c5)ccc4cn3)ccn2)CC1, the IC50 by setting is: under setting [1], less than 3.16 nM; under setting [2], less than 3.16 nM; under setting [3], less than 3.16 nM; under setting [4], less than 3.16 nM; under setting [5], less than 3.16 nM; under setting [6], less than 3.16 nM. In addition, the viability, T/C runs as follows: (second compound 0.0316 µM, first compound 0.00316 µM) 14.1%; (second compound 0.0316 µM, first compound 0.01 µM) 8.12%; under setting [7], 3.67%; under setting [8], 2.7%; under setting [9], 0.99%; under setting [10], 0.98%. Also, the viability, T/C is, setting by setting: (second compound 0.1 µM, first compound 0.00316 µM) 10.7%; (second compound 0.1 µM, first compound 0.01 µM) 7.87%; under setting [13], 5.68%; under setting [14], 1.93%; under setting [15], 1%; under setting [16], 0.47%. Further, the viability, T/C runs as follows: (second compound 0.316 µM, first compound 0.00316 µM) 10.6%; (second compound 0.316 µM, first compound 0.01 µM) 9.07%; under setting [19], 3.15%; under setting [20], 1.65%; under setting [21], 0.34%; under setting [22], 0.08%. The viability, T/C runs as follows: (second compound 1 µM, first compound 0.00316 µM) 0.11%; (second compound 1 µM, first compound 0.01 µM) 0.18%; under setting [25], 0.1%; under setting [26], 0.34%; under setting [27], 0.05%; under setting [28], 0.05%. Besides, the viability, T/C is 0.07% (second compound 3.16 µM, first compound 0.00316 µM); 0.08% (second compound 3.16 µM, first compound 0.01 µM); 0.13% under setting [31]; 0.73% under setting [32]; 0.09% under setting [33]; 0.08% under setting [34]. For the same molecule, the viability, T/C reads like this: (second compound 10 µM, first compound 0.00316 µM) 0.45%; (second compound 10 µM, first compound 0.01 µM) 0.11%; under setting [37], 0.2%; under setting [38], 1.89%; under setting [39], 0.75%; under setting [40], 0.18%.

Regarding `NC(=O)C(=Cn1cnc(-c2cc(C(F)(F)F)cc(C(F)(F)F)c2)n1)c1cncnc1`, the viability, T/C reads like this: (compound 0.00949 µM) 83.8% and 85.3%; (compound 0.03 µM) 74.8% and 59.7%; (compound 0.0949 µM) 41.1% and 33.7%; (compound 0.3 µM) 19.5% and 14.4%; (compound 0.949 µM) 13.9% and 7.66%; (compound 3 µM) 4.42% and 2.99%. Moreover, the IC50 (curve of compound) was 72.6 nM and 45.9 nM.

As to `C#Cc1c(F)ccc2cc(O)cc(-c3ncc4c(N5CC6CCC(C5)N6)nc(OCC56CCCN5CC(F)C6)nc4c3F)c12` (centres undefined), the viability, T/C reads like this: (compound 0.0316 µM) 90.6% and 93%; (compound 0.1 µM) 79.4% and 89.5%; (compound 0.316 µM) 88.3% and 86.8%; (compound 1 µM) 92% and 85.9%; (compound 3.16 µM) 87% and 103%; (compound 10 µM) 80% and 87.1%. Under “curve of compound”, the IC50 is greater than 10000 nM.
